Test results as given in ChEMBL document CHEMBL3603783, “Monoterpene indole alkaloid hydrazone derivatives with apoptosis inducing activity in human HCT116 colon and HepG2 liver carcinoma cells” (2015).
The source made the active and inactive calls. The rule behind the calls is not given here.

Columns and labels:
[1] = tested on: HCT-116; experiment: Cytotoxicity against human HCT116 cells assessed as reduction in cell viability at 10 uM after 72 hrs by MTS assay relative to control; type: functional
[2] = tested on: HepG2; experiment: Induction of apoptosis in human HepG2 cells at 25 uM after 72 hrs by Guava ViaCount flow cytometric analysis relative to control; type: functional
[3] = tested on: HepG2; experiment: Induction of apoptosis in human HepG2 cells assessed as change in nuclear morphology at 25 uM after 24 hrs by Hoechst staining-based fluorescence microscopic analysis relative to 5-FU; type: functional
[4] = tested on: HCT-116; experiment: Induction of apoptosis in human HCT116 cells assessed as change in nuclear morphology at 25 uM after 24 hrs by Hoechst staining-based fluorescence microscopic analysis relative to 5-FU; type: functional
[5] = tested on: HCT-116; experiment: Cytotoxicity against human HCT116 cells assessed as reduction in cell viability at 25 uM after 72 hrs by MTS assay relative to control; type: functional
[6] = tested on: HCT-116; experiment: Induction of apoptosis in human HCT116 cells at 25 uM after 72 hrs by Guava ViaCount flow cytometric analysis relative to control; type: functional
[7] = tested on: HCT-116; experiment: Induction of apoptosis in human HCT116 cells assessed as change in nuclear morphology at 25 uM after 24 hrs by Hoechst staining-based fluorescence microscopic analysis relative to vehicle-treated control; type: functional
[8] = tested on: HepG2; experiment: Cytotoxicity against human HepG2 cells assessed as reduction in cell viability at 25 uM after 72 hrs by MTS assay relative to control; type: functional
[9] = tested on: HCT-116; experiment: Induction of apoptosis in human HCT116 cells assessed as increase in caspase-3/7 activity at 25 to 50 uM after 24 hrs by caspase-Glo 3/7 assay; type: functional, cell-based
[10] = tested on: HepG2; experiment: Induction of apoptosis in human HepG2 cells assessed as increase in caspase-3/7 activity at 25 to 50 uM after 24 hrs by caspase-Glo 3/7 assay; type: functional, cell-based
[11] = tested on: HepG2; experiment: Induction of apoptosis in human HepG2 cells assessed as change in nuclear morphology at 25 uM after 24 hrs by Hoechst staining-based fluorescence microscopic analysis relative to vehicle-treated control; type: functional
[12] = tested on: HCT-116; experiment: Induction of apoptosis in human HCT116 cells at 5 to 50 uM after 72 hrs by Guava ViaCount flow cytometric analysis; type: functional, cell-based
[13] = tested on: HepG2; experiment: Induction of apoptosis in human HepG2 cells at 5 to 50 uM after 72 hrs by Guava ViaCount flow cytometric analysis; type: functional, cell-based
[14] = tested on: HCT-116; experiment: Cytotoxicity against human HCT116 cells assessed as reduction in cell viability at 50 uM after 72 hrs by MTS assay relative to control; type: functional
[15] = tested on: HepG2; experiment: Cytotoxicity against human HepG2 cells assessed as reduction in cell viability at 50 uM after 72 hrs by MTS assay relative to control; type: functional
[16] = tested on: HepG2; experiment: Induction of apoptosis in human HepG2 cells assessed as change in nuclear morphology at 25 to 50 uM after 24 hrs by Hoechst staining-based fluorescence microscopic analysis; type: functional, cell-based
[17] = tested on: HepG2; experiment: Induction of apoptosis in human HepG2 cells at 50 uM after 72 hrs by Guava ViaCount flow cytometric analysis relative to control; type: functional
[18] = tested on: HCT-116; experiment: Induction of apoptosis in human HCT116 cells at 50 uM after 72 hrs by Guava ViaCount flow cytometric analysis relative to control; type: functional
[19] = tested on: HCT-116; experiment: Induction of apoptosis in human HCT116 cells assessed as change in nuclear morphology at 25 to 50 uM after 24 hrs by Hoechst staining-based fluorescence microscopic analysis; type: functional, cell-based
[20] = tested on: HepG2; experiment: Cytotoxicity against human HepG2 cells assessed as reduction in cell viability at 5 to 50 uM after 72 hrs by MTS assay; type: functional, cell-based
[21] = tested on: HCT-116; experiment: Cytotoxicity against human HCT116 cells assessed as reduction in cell viability at 5 to 50 uM after 72 hrs by MTS assay; type: functional, cell-based

## CC[C@H]1CN(C)[C@H]2Cc3c([nH]c4ccccc34)/C(=N/Nc3ccc(Br)cn3)C[C@H]1[C@@H]2C(=O)OC
[1]
  Activity: 75%
[2]
  Activity: 95%
[3]
  fold change (FC): 2.7
[4]
  fold change (FC): 4
[5]
  Activity: >95%
[6]
  Activity: 95%
[7]
  fold change (FC): 4
[8]
  Activity: >95%
[9]
  Activity: Active
[10]
  Activity: Active
[11]
  fold change (FC): 5.5

## CC[C@H]1CN(C)[C@H]2Cc3c([nH]c4ccccc34)C(=O)C[C@H]1[C@@H]2C(=O)OC
[12]
  Activity: inactive
[13]
  Activity: inactive
[14]
  Activity: inactive
[15]
  Activity: inactive

## CC[C@@H]1CN(C)[C@H]2Cc3c([nH]c4ccccc34)/C(=N/Nc3ccccc3)C[C@H]1[C@@H]2C(=O)OC
[2]
  Activity: 90%
[16]
  Activity: Active
[17]
  Activity: 95%
[18]
  Activity: 95%
[19]
  Activity: Active
[6]
  Activity: 35%
[8]
  Activity: 60%
[9]
  Activity: Active
[10]
  Activity: Active
[14]
  Activity: >95%
[15]
  Activity: >95%

## CC[C@@H]1CN(C)[C@H]2Cc3c([nH]c4ccccc34)/C(=N/Nc3ccc(Br)cn3)C[C@H]1[C@@H]2C(=O)OC
[3]
  fold change (FC): 2
[4]
  fold change (FC): 2
[17]
  Activity: 95%
[18]
  Activity: 95%
[5]
  Activity: >95%
[7]
  fold change (FC): 2
[8]
  Activity: >95%
[9]
  Activity: Active
[10]
  Activity: Active
[11]
  fold change (FC): 4

## O=c1[nH]cc(F)c(=O)[nH]1
[12]
  Activity: Active
[16]
  Activity: Active
[19]
  Activity: Active
[13]
  Activity: Active
[20]
  Activity: Active
[21]
  Activity: Active

## CC[C@@H]1CN(C)[C@H]2Cc3c([nH]c4ccccc34)C(=O)C[C@@H]1[C@H]2C(=O)OC
[12]
  Activity: inactive
[13]
  Activity: inactive
[14]
  Activity: inactive
[15]
  Activity: inactive

## CC[C@H]1CN(C)[C@H]2Cc3c([nH]c4ccccc34)/C(=N/Nc3ccccc3)C[C@H]1[C@@H]2C(=O)OC
[14]
  Activity: inactive
[15]
  Activity: inactive
